Data as given in ChEMBL document CHEMBL1201862, “PubChem BioAssay data set” (2004).
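Following 48 hours of exposure in 96-well plates, responses at five concentrations were used to interpolate endpoints linearly. The concentration for 50% growth inhibition is given as GI50.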 Active and inactive are the calls of the source. Cut-off read from the data, not from the text of the source: active = GI50 up to about 1.1 µM and inactive = higher.

Columns and labels:
Assay in all cases: growth of human tumour cells (NCI), 48 h
ACHN = system: ACHN
UACC-257 = system: UACC-257
HCT-116 = system: HCT-116
Hs-578T = system: Hs-578T
OVCAR-4 = system: OVCAR-4
HOP-62 = system: HOP-62
786-0 = system: 786-0
SN12C = system: SN12C
MDA-N = system: MDA-N
SW-620 = system: SW-620
SF-295 = system: SF-295
SF-268 = system: SF-268
LOX IMVI = system: LOX IMVI
HOP-92 = system: HOP-92
EKVX = system: EKVX
T47D = system: T47D
OVCAR-5 = system: OVCAR-5
OVCAR-3 = system: OVCAR-3
NCI/ADR-RES = system: NCI/ADR-RES
K562 = system: K562
NCI-H23 = system: NCI-H23
SNB-75 = system: SNB-75
HT-29 = system: HT-29
OVCAR-8 = system: OVCAR-8
PC-3 = system: PC-3
KM12 = system: KM12
DU-145 = system: DU-145
U-251 = system: U-251
HL-60 = system: HL-60
MCF7 = system: MCF7
SR = system: SR
CCRF-CEM = system: CCRF-CEM
MDA-MB-231 = system: MDA-MB-231
MDA-MB-435 = system: MDA-MB-435
NCI-H522 = system: NCI-H522
RPMI-8226 = system: RPMI-8226
SF-539 = system: SF-539
NCI-H460 = system: NCI-H460
SK-MEL-28 = system: SK-MEL-28
IGROV-1 = system: IGROV-1
MOLT-4 = system: MOLT-4
Malme-3M = system: Malme-3M
M14 = system: M14
TK-10 = system: TK-10
SK-MEL-5 = system: SK-MEL-5
HCT-15 = system: HCT-15
SNB-19 = system: SNB-19
A498 = system: A498
A549 = system: A549
COLO 205 = system: COLO 205
UACC-62 = system: UACC-62
SK-OV-3 = system: SK-OV-3
HCC 2998 = system: HCC 2998
NCI-H226 = system: NCI-H226
RXF 393 = system: RXF 393
CAKI-1 = system: CAKI-1
SK-MEL-2 = system: SK-MEL-2
UO-31 = system: UO-31

Question: How did the GI50 (ACHN) turn out when `COC(=O)c1cc2c(c3c1CC(Cc1ccccc1)C3=O)CCC2` (configuration not stated) was run?
Answer: 84.3 µM (inactive)

Question: What about the GI50 (UACC-257) of the same compound?
Answer: > 100 µM (inactive)

Question: And the GI50 (HCT-116)?
Answer: > 100 µM (inactive)

Question: What about the GI50 (Hs-578T) of the same compound?
Answer: 45.9 µM (inactive)

Question: What about the GI50 (OVCAR-4) of the same compound?
Answer: 81.1 µM (inactive)

Question: And the GI50 (HOP-62)?
Answer: 99.3 µM (inactive)

Question: What about the GI50 (786-0) of the same compound?
Answer: 71.8 µM (inactive)

Question: What about the GI50 (SN12C) of the same compound?
Answer: 78.2 µM (inactive)

Question: And the GI50 (MDA-N)?
Answer: > 100 µM (inactive)

Question: And the GI50 (SW-620)?
Answer: > 100 µM (inactive)

Question: And the GI50 (SF-295)?
Answer: > 100 µM (inactive)

Question: What about the GI50 (SF-268) of the same compound?
Answer: 91.6 µM (inactive)

Question: What about the GI50 (LOX IMVI) of the same compound?
Answer: 45.9 µM (inactive)

Question: And the GI50 (HOP-92)?
Answer: 25.1 µM (inactive)

Question: What about the GI50 (EKVX) of the same compound?
Answer: > 100 µM (inactive)

Question: And the GI50 (T47D)?
Answer: 25.5 µM (inactive)

Question: What about the GI50 (OVCAR-5) of the same compound?
Answer: > 100 µM (inactive)

Question: What about the GI50 (OVCAR-3) of the same compound?
Answer: > 100 µM (inactive)

Question: And the GI50 (NCI/ADR-RES)?
Answer: > 100 µM (inactive)

Question: What about the GI50 (K562) of the same compound?
Answer: 38.1 µM (inactive)

Question: What about the GI50 (NCI-H23) of the same compound?
Answer: 64.4 µM (inactive)

Question: What about the GI50 (SNB-75) of the same compound?
Answer: 40.9 µM (inactive)

Question: What about the GI50 (HT-29) of the same compound?
Answer: 74.1 µM (inactive)

Question: What about the GI50 (OVCAR-8) of the same compound?
Answer: 95.3 µM (inactive)

Question: What about the GI50 (PC-3) of the same compound?
Answer: > 100 µM (inactive)

Question: And the GI50 (KM12)?
Answer: 18.4 µM (inactive)

Question: And the GI50 (DU-145)?
Answer: 61.4 µM (inactive)

Question: What about the GI50 (U-251) of the same compound?
Answer: 62.8 µM (inactive)

Question: And the GI50 (HL-60)?
Answer: > 100 µM (inactive)

Question: What about the GI50 (MCF7) of the same compound?
Answer: 69.7 µM (inactive)

Question: What about the GI50 (SR) of the same compound?
Answer: > 100 µM (inactive)

Question: What about the GI50 (CCRF-CEM) of the same compound?
Answer: 36.5 µM (inactive)

Question: What about the GI50 (MDA-MB-231) of the same compound?
Answer: 62.2 µM (inactive)

Question: And the GI50 (MDA-MB-435)?
Answer: 52.6 µM (inactive)

Question: And the GI50 (NCI-H522)?
Answer: 68.4 µM (inactive)

Question: What about the GI50 (RPMI-8226) of the same compound?
Answer: 59.8 µM (inactive)

Question: And the GI50 (SF-539)?
Answer: > 100 µM (inactive)

Question: And the GI50 (NCI-H460)?
Answer: 71.1 µM (inactive)

Question: What about the GI50 (SK-MEL-28) of the same compound?
Answer: > 100 µM (inactive)

Question: And the GI50 (IGROV-1)?
Answer: 73.3 µM (inactive)

Question: And the GI50 (MOLT-4)?
Answer: 53.6 µM (inactive)

Question: What about the GI50 (Malme-3M) of the same compound?
Answer: 54.1 µM (inactive)

Question: And the GI50 (M14)?
Answer: 93.3 µM (inactive)

Question: And the GI50 (TK-10)?
Answer: > 100 µM (inactive)

Question: And the GI50 (SK-MEL-5)?
Answer: 64.4 µM (inactive)

Question: What about the GI50 (HCT-15) of the same compound?
Answer: 35 µM

Question: And the GI50 (SNB-19)?
Answer: > 100 µM (inactive)

Question: What about the GI50 (A498) of the same compound?
Answer: > 100 µM (inactive)

Question: And the GI50 (A549)?
Answer: 53.6 µM (inactive)

Question: What about the GI50 (COLO 205) of the same compound?
Answer: > 100 µM (inactive)

Question: And the GI50 (UACC-62)?
Answer: 32.7 µM (inactive)

Question: What about the GI50 (SK-OV-3) of the same compound?
Answer: 80.5 µM (inactive)

Question: And the GI50 (HCC 2998)?
Answer: 36.7 µM (inactive)

Question: What about the GI50 (NCI-H226) of the same compound?
Answer: > 100 µM (inactive)

Question: What about the GI50 (RXF 393) of the same compound?
Answer: 90.2 µM (inactive)

Question: Which GI50 (ACHN) does the source give for `Cc1cccc2c1CC1(C2)Cc2c(C)cccc2C1=O` (configuration not stated) here?
Answer: 24.9 µM (inactive)

Question: What about the GI50 (UACC-257) of the same compound?
Answer: 23 µM (inactive)

Question: What about the GI50 (HCT-116) of the same compound?
Answer: 16.5 µM (inactive)

Question: And the GI50 (Hs-578T)?
Answer: 37.6 µM (inactive)

Question: What about the GI50 (OVCAR-4) of the same compound?
Answer: 30.6 µM (inactive)

Question: What about the GI50 (HOP-62) of the same compound?
Answer: 23.6 µM (inactive)

Question: What about the GI50 (786-0) of the same compound?
Answer: 23.8 µM (inactive)

Question: What about the GI50 (CAKI-1) of the same compound?
Answer: 10.3 µM (inactive)

Question: And the GI50 (SN12C)?
Answer: 23.2 µM (inactive)

Question: What about the GI50 (MDA-N) of the same compound?
Answer: 26.9 µM (inactive)

Question: And the GI50 (SW-620)?
Answer: 29.9 µM (inactive)

Question: And the GI50 (SF-295)?
Answer: 27.9 µM (inactive)

Question: What about the GI50 (SF-268) of the same compound?
Answer: 26.7 µM (inactive)

Question: What about the GI50 (LOX IMVI) of the same compound?
Answer: 17.5 µM (inactive)

Question: And the GI50 (HOP-92)?
Answer: 16.6 µM (inactive)

Question: And the GI50 (EKVX)?
Answer: 16 µM (inactive)

Question: What about the GI50 (T47D) of the same compound?
Answer: 44.8 µM (inactive)

Question: And the GI50 (OVCAR-5)?
Answer: 28.7 µM (inactive)

Question: And the GI50 (OVCAR-3)?
Answer: 23.9 µM (inactive)

Question: What about the GI50 (NCI/ADR-RES) of the same compound?
Answer: 38.1 µM (inactive)

Question: What about the GI50 (K562) of the same compound?
Answer: 26.5 µM (inactive)

Question: What about the GI50 (NCI-H23) of the same compound?
Answer: 31.4 µM (inactive)

Question: What about the GI50 (SNB-75) of the same compound?
Answer: 18.6 µM (inactive)

Question: And the GI50 (HT-29)?
Answer: 29.9 µM (inactive)

Question: What about the GI50 (OVCAR-8) of the same compound?
Answer: 42.9 µM (inactive)

Question: What about the GI50 (PC-3) of the same compound?
Answer: 31.7 µM (inactive)

Question: And the GI50 (SK-MEL-2)?
Answer: 16.9 µM (inactive)

Question: What about the GI50 (KM12) of the same compound?
Answer: 25.2 µM (inactive)

Question: What about the GI50 (DU-145) of the same compound?
Answer: 18.8 µM (inactive)

Question: What about the GI50 (U-251) of the same compound?
Answer: 23.8 µM (inactive)

Question: And the GI50 (HL-60)?
Answer: 26.7 µM (inactive)

Question: What about the GI50 (MCF7) of the same compound?
Answer: 27.2 µM (inactive)

Question: What about the GI50 (SR) of the same compound?
Answer: 11.2 µM (inactive)

Question: And the GI50 (CCRF-CEM)?
Answer: 21.3 µM (inactive)

Question: What about the GI50 (MDA-MB-231) of the same compound?
Answer: 23.6 µM (inactive)

Question: What about the GI50 (MDA-MB-435) of the same compound?
Answer: 24.8 µM (inactive)

Question: And the GI50 (NCI-H522)?
Answer: 17.8 µM (inactive)

Question: What about the GI50 (RPMI-8226) of the same compound?
Answer: 14.8 µM (inactive)

Question: What about the GI50 (SF-539) of the same compound?
Answer: 25.9 µM (inactive)

Question: What about the GI50 (NCI-H460) of the same compound?
Answer: 22.7 µM (inactive)

Question: What about the GI50 (SK-MEL-28) of the same compound?
Answer: 21.6 µM (inactive)

Question: What about the GI50 (IGROV-1) of the same compound?
Answer: 30.4 µM (inactive)

Question: And the GI50 (MOLT-4)?
Answer: 9.91 µM (inactive)

Question: And the GI50 (Malme-3M)?
Answer: 22.7 µM (inactive)

Question: What about the GI50 (M14) of the same compound?
Answer: 26.6 µM (inactive)

Question: What about the GI50 (TK-10) of the same compound?
Answer: 23.6 µM (inactive)

Question: And the GI50 (SK-MEL-5)?
Answer: 18.2 µM (inactive)

Question: What about the GI50 (HCT-15) of the same compound?
Answer: 29 µM

Question: And the GI50 (SNB-19)?
Answer: 49.3 µM (inactive)

Question: And the GI50 (A498)?
Answer: 32.1 µM (inactive)

Question: And the GI50 (A549)?
Answer: 22.4 µM (inactive)

Question: And the GI50 (COLO 205)?
Answer: 15.6 µM (inactive)

Question: And the GI50 (SK-OV-3)?
Answer: 29.8 µM (inactive)

Question: What about the GI50 (HCC 2998) of the same compound?
Answer: 26.1 µM (inactive)

Question: And the GI50 (NCI-H226)?
Answer: 26.8 µM (inactive)

Question: And the GI50 (RXF 393)?
Answer: 15.6 µM (inactive)

Question: What about the GI50 (UO-31) of the same compound?
Answer: 23.1 µM (inactive)
